These results are taken from paper PMC7758399, “Phosphoglucoisomerase Is an Important Regulatory Enzyme in Partitioning Carbon out of the Calvin-Benson Cycle” (Frontiers in Plant Science, 2020).

Common to all, as to format: biochemical
The target of test [1] is T1, plastidic AtPGI (PGI1) (Arabidopsis thaliana, UniProt Q8H103).
T1 construct: N-terminal His-tag, plastid targeting peptide removed, pET11a, E. coli BL21, Ni-NTA purified
T1 sequence (Q8H103 49-613): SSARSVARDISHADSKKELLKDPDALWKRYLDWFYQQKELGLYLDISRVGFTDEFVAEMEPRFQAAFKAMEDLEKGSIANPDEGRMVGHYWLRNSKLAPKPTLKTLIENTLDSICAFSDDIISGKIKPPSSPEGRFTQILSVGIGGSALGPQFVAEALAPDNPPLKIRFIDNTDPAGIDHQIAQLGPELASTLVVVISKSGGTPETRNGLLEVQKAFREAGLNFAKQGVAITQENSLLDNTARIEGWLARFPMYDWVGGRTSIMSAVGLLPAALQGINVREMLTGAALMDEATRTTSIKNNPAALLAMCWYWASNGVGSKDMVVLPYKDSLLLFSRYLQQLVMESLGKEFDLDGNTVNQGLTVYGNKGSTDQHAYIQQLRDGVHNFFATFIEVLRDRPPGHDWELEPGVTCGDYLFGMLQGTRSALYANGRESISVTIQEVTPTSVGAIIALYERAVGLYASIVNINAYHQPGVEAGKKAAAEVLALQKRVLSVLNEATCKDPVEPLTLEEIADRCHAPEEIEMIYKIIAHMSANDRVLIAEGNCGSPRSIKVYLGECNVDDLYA
Briefly: G6PDH-coupled spectrophotometric assay, non-linear least squares fit. Conditions: F6P to G6P direction, F6P 0-0.98 mM, 50 mM bicine pH 7.8, 4.8 mM DTT, 0.6 mM NADP+, read-out: F6P G6P / Plastidic PGI. The source says: G6PDH-coupled spectrophotometric assay, non-linear least squares fit on plastidic AtPGI (PGI1)

For test [2], the target named is T2, cytosolic AtPGI (PGI2) (Arabidopsis thaliana, UniProt P34795).
T2 construct: gene PGIC; N-terminal His-tag, pET11a, E. coli BL21, Ni-NTA purified
T2 sequence (P34795 1-560): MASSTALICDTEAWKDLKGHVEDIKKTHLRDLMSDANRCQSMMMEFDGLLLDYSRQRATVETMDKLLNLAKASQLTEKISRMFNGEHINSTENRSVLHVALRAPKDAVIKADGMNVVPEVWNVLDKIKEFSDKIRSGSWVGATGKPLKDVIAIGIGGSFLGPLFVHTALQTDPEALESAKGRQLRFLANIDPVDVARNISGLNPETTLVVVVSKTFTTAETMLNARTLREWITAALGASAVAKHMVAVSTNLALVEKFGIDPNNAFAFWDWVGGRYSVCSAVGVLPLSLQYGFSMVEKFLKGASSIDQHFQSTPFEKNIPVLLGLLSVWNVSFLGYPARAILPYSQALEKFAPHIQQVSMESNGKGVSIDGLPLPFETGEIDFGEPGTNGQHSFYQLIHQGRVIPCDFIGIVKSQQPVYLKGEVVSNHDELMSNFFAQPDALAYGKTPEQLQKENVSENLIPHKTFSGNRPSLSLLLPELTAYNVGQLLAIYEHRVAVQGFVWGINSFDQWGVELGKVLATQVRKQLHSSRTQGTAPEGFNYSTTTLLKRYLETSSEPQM
Described as above. The note with it: F6P to G6P direction, F6P 0-0.98 mM, 50 mM bicine pH 7.8, 4.8 mM DTT, 0.6 mM NADP+, read-out: F6P G6P / Cytosolic PGI. From the text: G6PDH-coupled spectrophotometric assay, non-linear least squares fit on cytosolic AtPGI (PGI2)

The target in test [3] is T3, plastidic SoPGI (Spinacia oleracea, UniProt O82058).
T3 construct: gene GPIP; native, lysed Percoll-isolated chloroplasts from market spinach leaves, light or dark treated
T3 sequence (O82058 51-618): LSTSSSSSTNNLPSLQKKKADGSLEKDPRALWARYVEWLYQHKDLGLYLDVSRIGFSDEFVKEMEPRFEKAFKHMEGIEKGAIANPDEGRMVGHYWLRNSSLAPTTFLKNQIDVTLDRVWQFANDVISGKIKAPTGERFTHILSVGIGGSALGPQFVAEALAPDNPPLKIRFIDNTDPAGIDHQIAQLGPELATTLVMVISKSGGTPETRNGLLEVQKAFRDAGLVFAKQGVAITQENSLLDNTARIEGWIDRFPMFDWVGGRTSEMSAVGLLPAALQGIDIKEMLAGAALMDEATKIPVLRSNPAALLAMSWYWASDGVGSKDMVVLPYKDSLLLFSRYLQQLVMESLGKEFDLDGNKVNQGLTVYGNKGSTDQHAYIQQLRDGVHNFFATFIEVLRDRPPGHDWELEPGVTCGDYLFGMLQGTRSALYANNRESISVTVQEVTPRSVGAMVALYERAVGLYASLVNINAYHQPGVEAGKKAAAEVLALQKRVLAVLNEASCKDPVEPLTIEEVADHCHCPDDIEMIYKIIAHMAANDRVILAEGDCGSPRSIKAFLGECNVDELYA
As to the kind of experiment: PGI assay on lysed isolated chloroplasts. Conditions: F6P to G6P direction; light-treated leaves (dark-treated also measured).

In test [4] the target is T1, plastidic AtPGI (PGI1). As to the kind of experiment: G6PDH-coupled spectrophotometric assay, Hill function fit. The note with it: F6P to G6P direction; 50 mM bicine pH 7.8, 4.8 mM DTT, 0.6 mM NADP+; read-out: F6P G6P / Plastidic PGI. From the text:
G6PDH-coupled spectrophotometric assay, Hill function fit on plastidic AtPGI (PGI1)

The target in test [5] is T2, cytosolic AtPGI (PGI2). The description is as above. The note with it: F6P to G6P direction; 50 mM bicine pH 7.8, 4.8 mM DTT, 0.6 mM NADP+; table and text disagree, table columns possibly interchanged; read-out: F6P G6P / Cytosolic PGI. The source says:
G6PDH-coupled spectrophotometric assay, Hill function fit on cytosolic AtPGI (PGI2)

The target of test [6] is T2, cytosolic AtPGI (PGI2). As to the kind of experiment: phosphofructokinase-coupled LC-MS/MS assay of FBP, Hill function fit. Conditions: G6P to F6P direction; 50 mM Tris pH 7.8, 2.5 mM MgCl2, 1 mM ATP, 5 mM DTT; read-out: G6P F6P / Cytosolic PGI. The source says: phosphofructokinase-coupled LC-MS/MS assay of FBP, Hill function fit on cytosolic AtPGI (PGI2)
The target in test [7] is T1, plastidic AtPGI (PGI1). Described as above. Conditions: G6P to F6P direction; 50 mM Tris pH 7.8, 2.5 mM MgCl2, 1 mM ATP, 5 mM DTT; table and text ratio disagree, table columns possibly interchanged; read-out: G6P F6P / Plastidic PGI. From the text:
phosphofructokinase-coupled LC-MS/MS assay of FBP, Hill function fit on plastidic AtPGI (PGI1)

Setting [8] is: competitive with F6P except above 1.0 mM.

Like-named read-outs stand apart in the source and are kept apart here.

In the case of `O=C(O)[C@H](O)[C@@H](O)[C@H](O)[C@H](O)COP(=O)(O)O` [6PG, 6-phosphogluconate], the Ki turned out to be 31 µM in test [1] (setting [8]) and 106 µM in test [2] (setting [8]).

For the compound `O=C[C@H](O)[C@H](O)COP(=O)(O)O` [E4P, erythrose 4-phosphate], the Ki in test [1] was 2.3 µM; in test [2], 1.5 µM.

Regarding `O=P(O)(O)OC[C@H]1OC(O)(CO)[C@@H](O)[C@@H]1O` (stereo partly drawn) [F6P, fructose 6-phosphate], the Km result was “The Km of SoPGI for F6P did not change in the light or dark” in test [3], 73 ± 80 µM in test [4] and 203 ± 12 µM in test [5].

With `O=P(O)(O)OC[C@H]1OC(O)[C@H](O)[C@@H](O)[C@@H]1O` (stereo partly drawn) [G6P, glucose 6-phosphate], the Km in test [6] turned out to be 158 ± 85 µM; in test [7] it was 164 ± 43 µM.
